We go through four molecules from ChEMBL document CHEMBL1201862, “PubChem BioAssay data set” (2004).

Among the test systems are SK-MEL-5; HL-60; HOP-62; RXF 393; SF-268; NCI-H23; MOLT-4; IGROV-1; M14; RPMI-8226; K562; HT-29; ACHN; UACC-257; SF-295; SK-OV-3; CAKI-1; MDA-MB-435; HCT-116; OVCAR-4.
Holding throughout (assay): NCI anticancer screen, dose series, 48 h

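These data come from cells grown in 96-well plates and exposed to compound for 48 hours at five concentrations. Abbreviation: GI50, concentration required for 50% inhibition of growth.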 The source made the active and inactive calls. Rule as the data show it: active = GI50 up to about 1.1 µM and inactive = higher.

For `O=C(CCCN1CCC2(CC1)CC(=O)N(N1CCOCC1)C2=O)c1ccccc1`, the GI50 in the assay on SK-MEL-5, in the assay with HL-60, in the assay with HOP-62, with RXF 393, with SF-268 and with NCI-H23 was > 100 µM (inactive) in each case. Further, the GI50 in the assay on MOLT-4, with IGROV-1, in the assay with M14, in the assay on RPMI-8226, in the assay on K562 and with HT-29 was > 100 µM (inactive) each time. The GI50 is > 100 µM (inactive) in the assay with ACHN; > 100 µM (inactive) in the assay on UACC-257; > 100 µM (inactive) in the assay on SF-295; > 100 µM (inactive) in the assay with SK-OV-3; > 100 µM (inactive) in the assay with CAKI-1; 19.1 µM (inactive) in the assay on MDA-MB-435. For the same molecule, in the assay with HCT-116, the GI50 is > 100 µM (inactive).

For the molecule `COc1ccc(Nc2ccc3ccccc3c2-c2c(O)ccc3ccccc23)cc1`, the GI50 in the assay on SK-MEL-5 is 17 µM (inactive); in the assay with HL-60 it was 31.1 µM (inactive); in the assay on HOP-62, 12.6 µM (inactive); with RXF 393, 20.2 µM (inactive); in the assay with SF-268, 17.8 µM (inactive); in the assay with NCI-H23 it was 15.2 µM (inactive). The GI50 in the assay with MOLT-4 was 10.1 µM (inactive); in the assay on IGROV-1, 11 µM (inactive); in the assay on RPMI-8226, 9.68 µM (inactive); with K562 it was 7.23 µM (inactive); in the assay with HT-29, 16.1 µM (inactive); in the assay with ACHN, 16.2 µM (inactive). Further, the GI50 with OVCAR-4 is 19 µM (inactive); in the assay on UACC-257, 22.1 µM (inactive); in the assay on SF-295 it was 18.4 µM (inactive); in the assay on CAKI-1 it was 16.1 µM (inactive); in the assay on MDA-MB-435 it was 3.99 µM (inactive); in the assay with HCT-116, 17.5 µM (inactive).

Consider `OB(O)c1ccccc1C#Cc1ccccc1B(O)O`, for which the GI50 in the assay with SK-MEL-5 was 14.8 µM (inactive); in the assay on HL-60, 21.4 µM (inactive); in the assay on HOP-62, 23.9 µM (inactive); in the assay with RXF 393, 11.3 µM (inactive); with SF-268, 11.5 µM (inactive); in the assay on NCI-H23, 24 µM (inactive). For the same molecule, the GI50 with MOLT-4 was 40.5 µM (inactive); in the assay with IGROV-1, 3.14 µM (inactive); in the assay with M14 it was 22.7 µM (inactive); in the assay with RPMI-8226, 20.6 µM (inactive); with K562, 38.3 µM (inactive); with HT-29, 42.7 µM (inactive). Further, the GI50 in the assay with ACHN is 20.7 µM (inactive); with UACC-257 it was 0.55 µM (active); in the assay on SF-295 it was 22.9 µM (inactive); in the assay with SK-OV-3 it was 24 µM (inactive); in the assay on CAKI-1, 3.09 µM (inactive); in the assay on MDA-MB-435 it was 19.7 µM (inactive). Also, the GI50 with HCT-116 was 18.1 µM (inactive).

Regarding `COC1(OC)c2no[n+]([O-])c2C(OC)(OC)c2c1no[n+]2[O-]`, the GI50 is 14.9 µM (inactive) with SK-MEL-5; 37.3 µM (inactive) in the assay with HL-60; 18.4 µM (inactive) in the assay on HOP-62; 26.1 µM (inactive) in the assay on RXF 393; 25.7 µM (inactive) with SF-268; 11.4 µM (inactive) with NCI-H23. Moreover, the GI50 in the assay with MOLT-4 was 12.4 µM (inactive); in the assay on IGROV-1, 21.7 µM (inactive); in the assay with M14 it was 12.3 µM (inactive); in the assay on RPMI-8226, 35.6 µM (inactive); in the assay on K562 it was 38.9 µM (inactive); in the assay on HT-29 it was 17.3 µM (inactive). The GI50 in the assay with ACHN is 19.5 µM (inactive); in the assay on OVCAR-4 it was 21.9 µM (inactive); with UACC-257, 12.5 µM (inactive); with SF-295, 35.7 µM (inactive); in the assay on CAKI-1 it was 37.8 µM (inactive); in the assay with MDA-MB-435, 17.3 µM (inactive). In the assay with HCT-116, the GI50 is 11.1 µM (inactive).
